13 compounds from ChEMBL document CHEMBL5465560, “Selectivity Literature for EUbOPEN Chemogenomic Library” (2024) can be followed below.

Assay [1] concerns the target Serine/threonine-protein kinase 32C (Homo sapiens) (UniProt Q86UX6). The assay is described as follows: Selectivity interaction (LanthaScreen Eu Kinase Binding Assay) EUB0001632a STK32C. As to conditions: at 10 µM. For orientation: In TR-FRET formats the signal depends on donor and acceptor labels being close together.
For assay [2], the target named is Serine/threonine-protein kinase/endoribonuclease IRE1 (Homo sapiens) (UniProt O75460). Nature of the assay: Selectivity interaction (KinomeScan (DiscoverX)) EUB0000666a ERN1. As to conditions: at 10 µM.
Serine/threonine-protein kinase/endoribonuclease IRE1 (Homo sapiens), sequence (O75460 19-977 limits assumed): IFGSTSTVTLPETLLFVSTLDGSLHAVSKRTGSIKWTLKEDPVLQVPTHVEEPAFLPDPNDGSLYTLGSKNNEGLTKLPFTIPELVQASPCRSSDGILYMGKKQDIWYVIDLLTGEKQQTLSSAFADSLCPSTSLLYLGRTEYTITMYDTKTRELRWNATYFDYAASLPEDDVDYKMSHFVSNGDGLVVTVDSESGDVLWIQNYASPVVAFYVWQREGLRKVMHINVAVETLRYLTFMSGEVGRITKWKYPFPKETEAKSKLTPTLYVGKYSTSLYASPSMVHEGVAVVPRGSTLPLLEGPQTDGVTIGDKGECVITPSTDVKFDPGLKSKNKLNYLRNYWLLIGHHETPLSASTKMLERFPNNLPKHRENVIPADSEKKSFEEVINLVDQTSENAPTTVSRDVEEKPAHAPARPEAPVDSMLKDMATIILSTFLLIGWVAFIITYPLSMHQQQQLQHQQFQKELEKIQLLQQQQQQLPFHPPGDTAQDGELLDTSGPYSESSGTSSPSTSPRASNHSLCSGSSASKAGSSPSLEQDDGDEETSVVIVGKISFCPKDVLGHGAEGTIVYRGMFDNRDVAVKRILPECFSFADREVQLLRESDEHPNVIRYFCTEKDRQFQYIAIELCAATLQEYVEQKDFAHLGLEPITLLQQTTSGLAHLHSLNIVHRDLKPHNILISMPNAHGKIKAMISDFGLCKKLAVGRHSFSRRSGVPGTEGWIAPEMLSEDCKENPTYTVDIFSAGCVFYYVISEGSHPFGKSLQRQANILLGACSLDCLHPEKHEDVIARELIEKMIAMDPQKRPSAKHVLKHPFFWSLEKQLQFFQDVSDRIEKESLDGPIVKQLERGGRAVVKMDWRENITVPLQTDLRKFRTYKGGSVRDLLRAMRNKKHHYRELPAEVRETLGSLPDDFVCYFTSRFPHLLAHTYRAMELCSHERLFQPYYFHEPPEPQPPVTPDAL
Assay [3] addresses Ribosomal protein S6 kinase alpha-1 (Homo sapiens, UniProt Q15418). Nature of the assay: Selectivity interaction (KinomeScan (DiscoverX)) EUB0000666a RPS6KA1. Particulars: at 10 µM.
In assay [4] the target is NT-3 growth factor receptor (Homo sapiens, UniProt Q16288). Nature of the assay: Selectivity interaction (SelectScreen profiling (Invitrogen)) EUB0000607a NTRK3. As to conditions: at 2 µM.
The test system of assay [5] is T1, Receptor-type tyrosine-protein kinase FLT3 (Homo sapiens), P36888 [N841I].
T1 sequence (whole entry): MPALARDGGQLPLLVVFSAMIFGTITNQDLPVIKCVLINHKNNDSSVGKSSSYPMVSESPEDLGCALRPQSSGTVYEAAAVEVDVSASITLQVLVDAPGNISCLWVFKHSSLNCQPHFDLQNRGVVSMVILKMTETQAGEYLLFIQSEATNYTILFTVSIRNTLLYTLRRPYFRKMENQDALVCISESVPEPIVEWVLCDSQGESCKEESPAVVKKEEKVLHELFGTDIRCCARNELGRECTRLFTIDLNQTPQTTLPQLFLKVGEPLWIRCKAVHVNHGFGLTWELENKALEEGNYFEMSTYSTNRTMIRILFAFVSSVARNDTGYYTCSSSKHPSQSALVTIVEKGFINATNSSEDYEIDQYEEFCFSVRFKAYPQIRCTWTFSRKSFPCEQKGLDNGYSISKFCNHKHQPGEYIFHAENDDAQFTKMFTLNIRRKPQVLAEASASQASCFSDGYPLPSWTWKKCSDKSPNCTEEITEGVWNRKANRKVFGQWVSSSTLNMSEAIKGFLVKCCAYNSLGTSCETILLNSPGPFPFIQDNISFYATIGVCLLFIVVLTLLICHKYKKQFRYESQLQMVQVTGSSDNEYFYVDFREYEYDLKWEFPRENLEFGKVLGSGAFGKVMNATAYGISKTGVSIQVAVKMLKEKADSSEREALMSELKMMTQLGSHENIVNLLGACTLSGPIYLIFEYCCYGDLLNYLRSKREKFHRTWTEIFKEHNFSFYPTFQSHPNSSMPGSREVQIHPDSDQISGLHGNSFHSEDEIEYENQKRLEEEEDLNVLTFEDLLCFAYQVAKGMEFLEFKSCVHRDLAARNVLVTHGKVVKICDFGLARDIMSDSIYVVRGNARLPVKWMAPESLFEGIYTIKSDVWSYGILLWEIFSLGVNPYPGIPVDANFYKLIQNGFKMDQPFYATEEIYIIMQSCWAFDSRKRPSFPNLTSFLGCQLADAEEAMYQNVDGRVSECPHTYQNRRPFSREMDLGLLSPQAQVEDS
As to conditions: at 10 µM.

Assay [6] deals with MAP kinase-activated protein kinase 2 (Homo sapiens, UniProt P49137). Nature of the assay: Selectivity interaction (Kinase screening (Nanosyn)) EUB0000604a MAPKAPK2.
MAP kinase-activated protein kinase 2, sequence (P49137 whole entry, looked up): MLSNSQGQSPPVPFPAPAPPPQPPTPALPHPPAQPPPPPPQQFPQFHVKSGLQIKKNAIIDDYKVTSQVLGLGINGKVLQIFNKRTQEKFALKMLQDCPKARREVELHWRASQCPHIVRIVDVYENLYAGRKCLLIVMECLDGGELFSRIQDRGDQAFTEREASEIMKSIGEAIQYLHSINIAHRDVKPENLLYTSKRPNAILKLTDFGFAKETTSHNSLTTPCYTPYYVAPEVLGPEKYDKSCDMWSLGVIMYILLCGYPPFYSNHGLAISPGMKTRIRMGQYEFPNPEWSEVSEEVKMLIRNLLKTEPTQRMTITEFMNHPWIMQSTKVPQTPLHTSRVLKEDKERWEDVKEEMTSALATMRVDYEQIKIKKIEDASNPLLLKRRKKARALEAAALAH
Assay [7] concerns the target SRSF protein kinase 2 (Homo sapiens) (UniProt P78362). The assay is described as follows: Selectivity interaction (ActivX KiNativ screen (kinase selectivity in THP-1 cell lysates)) EUB0000639a SRPK2. Particulars: lysate. The class given is subcellular.
The target in assay [8] is Protein-tyrosine kinase 6 (Homo sapiens, UniProt Q13882). The assay is described as follows: Selectivity interaction (KinomeScan (DiscoverX)) EUB0001049a PTK6. Particulars: at 1 µM.
Protein-tyrosine kinase 6, sequence (Q13882 whole entry, looked up): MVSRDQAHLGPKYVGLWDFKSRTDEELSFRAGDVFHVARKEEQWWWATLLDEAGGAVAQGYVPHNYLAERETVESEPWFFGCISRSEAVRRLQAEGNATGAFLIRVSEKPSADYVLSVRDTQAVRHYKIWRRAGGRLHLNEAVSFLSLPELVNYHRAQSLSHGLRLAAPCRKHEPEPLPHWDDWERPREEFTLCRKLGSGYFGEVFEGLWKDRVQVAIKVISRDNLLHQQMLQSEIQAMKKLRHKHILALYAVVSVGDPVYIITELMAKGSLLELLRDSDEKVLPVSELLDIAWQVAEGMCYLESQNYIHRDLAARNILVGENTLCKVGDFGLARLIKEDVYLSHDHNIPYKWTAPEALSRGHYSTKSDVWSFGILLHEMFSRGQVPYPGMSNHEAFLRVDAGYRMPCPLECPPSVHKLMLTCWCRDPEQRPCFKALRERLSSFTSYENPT
For assay [9], the target named is Epidermal growth factor receptor (Homo sapiens, UniProt P00533). Nature of the assay: Selectivity interaction (Kinase panel (33PanQinase(R) Activity Assay)) EUB0000877a EGFR.
Epidermal growth factor receptor, sequence (P00533 whole entry): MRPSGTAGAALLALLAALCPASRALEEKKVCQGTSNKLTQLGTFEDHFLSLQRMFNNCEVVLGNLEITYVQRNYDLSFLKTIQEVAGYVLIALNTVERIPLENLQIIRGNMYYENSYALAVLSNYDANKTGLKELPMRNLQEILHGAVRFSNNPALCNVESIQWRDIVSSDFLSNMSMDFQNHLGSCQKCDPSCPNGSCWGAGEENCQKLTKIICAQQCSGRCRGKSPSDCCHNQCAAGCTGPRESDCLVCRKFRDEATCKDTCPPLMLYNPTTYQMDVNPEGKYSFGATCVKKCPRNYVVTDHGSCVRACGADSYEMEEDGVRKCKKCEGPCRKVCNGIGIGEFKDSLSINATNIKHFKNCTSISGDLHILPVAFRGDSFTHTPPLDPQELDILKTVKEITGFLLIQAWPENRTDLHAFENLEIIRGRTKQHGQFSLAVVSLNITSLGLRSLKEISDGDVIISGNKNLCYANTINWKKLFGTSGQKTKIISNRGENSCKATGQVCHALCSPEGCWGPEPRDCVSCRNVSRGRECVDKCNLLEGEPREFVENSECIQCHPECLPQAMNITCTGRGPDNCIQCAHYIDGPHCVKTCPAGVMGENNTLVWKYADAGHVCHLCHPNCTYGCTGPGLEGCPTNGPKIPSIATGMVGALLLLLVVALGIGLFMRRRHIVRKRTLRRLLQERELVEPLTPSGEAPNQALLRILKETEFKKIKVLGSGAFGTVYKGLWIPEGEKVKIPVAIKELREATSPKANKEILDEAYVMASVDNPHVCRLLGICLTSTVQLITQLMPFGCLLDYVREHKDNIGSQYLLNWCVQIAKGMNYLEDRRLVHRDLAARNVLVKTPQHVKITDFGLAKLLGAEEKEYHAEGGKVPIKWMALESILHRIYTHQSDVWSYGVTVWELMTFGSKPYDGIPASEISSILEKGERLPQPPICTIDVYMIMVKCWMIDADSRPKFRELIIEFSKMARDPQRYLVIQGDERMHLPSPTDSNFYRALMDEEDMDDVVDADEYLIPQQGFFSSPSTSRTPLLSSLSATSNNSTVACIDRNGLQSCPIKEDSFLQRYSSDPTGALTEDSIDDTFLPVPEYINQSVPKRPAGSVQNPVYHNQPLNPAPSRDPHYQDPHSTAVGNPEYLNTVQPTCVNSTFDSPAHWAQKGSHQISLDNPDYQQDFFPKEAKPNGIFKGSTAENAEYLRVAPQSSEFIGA
In assay [10] the target is Tyrosine-protein kinase HCK (Homo sapiens) (UniProt P08631). Nature of the assay: Selectivity interaction (KinomeScan (DiscoverX)) EUB0000655a HCK. Particulars: at 10 µM.
Tyrosine-protein kinase HCK (Homo sapiens), sequence (P08631 2-526 limits assumed): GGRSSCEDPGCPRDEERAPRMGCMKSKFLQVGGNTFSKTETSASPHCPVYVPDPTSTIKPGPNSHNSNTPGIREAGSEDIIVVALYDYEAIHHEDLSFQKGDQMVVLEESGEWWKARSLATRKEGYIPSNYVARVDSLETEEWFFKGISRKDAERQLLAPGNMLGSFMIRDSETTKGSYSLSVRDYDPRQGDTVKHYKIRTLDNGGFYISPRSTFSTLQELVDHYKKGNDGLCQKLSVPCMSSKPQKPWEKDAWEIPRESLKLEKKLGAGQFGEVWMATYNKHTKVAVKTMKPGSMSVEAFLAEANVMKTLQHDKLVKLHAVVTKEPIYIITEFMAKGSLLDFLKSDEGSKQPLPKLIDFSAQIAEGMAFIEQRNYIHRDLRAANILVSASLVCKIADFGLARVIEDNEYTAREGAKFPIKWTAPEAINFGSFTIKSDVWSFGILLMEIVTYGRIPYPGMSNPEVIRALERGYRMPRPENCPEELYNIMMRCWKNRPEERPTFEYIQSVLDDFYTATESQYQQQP
In assay [11] the target is TGF-beta receptor type-2 (Homo sapiens) (UniProt P37173). Nature of the assay: Selectivity interaction (KinomeScan (DiscoverX)) EUB0000618a TGFBR2. As to conditions: at 10 µM.
TGF-beta receptor type-2 (Homo sapiens), sequence (P37173 whole entry): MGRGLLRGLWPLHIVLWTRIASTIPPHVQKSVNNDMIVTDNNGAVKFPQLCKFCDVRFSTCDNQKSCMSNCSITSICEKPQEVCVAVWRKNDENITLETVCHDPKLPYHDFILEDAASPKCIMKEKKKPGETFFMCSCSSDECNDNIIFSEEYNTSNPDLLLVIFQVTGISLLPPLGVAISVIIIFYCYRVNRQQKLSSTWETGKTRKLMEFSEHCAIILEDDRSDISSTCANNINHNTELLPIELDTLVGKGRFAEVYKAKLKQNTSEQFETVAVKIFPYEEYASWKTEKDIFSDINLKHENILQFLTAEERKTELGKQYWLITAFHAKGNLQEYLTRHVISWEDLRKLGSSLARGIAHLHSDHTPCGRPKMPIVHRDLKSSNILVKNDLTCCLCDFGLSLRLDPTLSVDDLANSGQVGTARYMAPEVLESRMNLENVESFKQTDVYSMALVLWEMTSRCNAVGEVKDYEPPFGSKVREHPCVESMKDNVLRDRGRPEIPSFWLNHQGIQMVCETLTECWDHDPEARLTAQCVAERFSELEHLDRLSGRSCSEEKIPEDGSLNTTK
Assay [12] addresses T2, Serine/threonine-protein kinase haspin (Homo sapiens) (UniProt Q8TF76).
T2 sequence (whole entry): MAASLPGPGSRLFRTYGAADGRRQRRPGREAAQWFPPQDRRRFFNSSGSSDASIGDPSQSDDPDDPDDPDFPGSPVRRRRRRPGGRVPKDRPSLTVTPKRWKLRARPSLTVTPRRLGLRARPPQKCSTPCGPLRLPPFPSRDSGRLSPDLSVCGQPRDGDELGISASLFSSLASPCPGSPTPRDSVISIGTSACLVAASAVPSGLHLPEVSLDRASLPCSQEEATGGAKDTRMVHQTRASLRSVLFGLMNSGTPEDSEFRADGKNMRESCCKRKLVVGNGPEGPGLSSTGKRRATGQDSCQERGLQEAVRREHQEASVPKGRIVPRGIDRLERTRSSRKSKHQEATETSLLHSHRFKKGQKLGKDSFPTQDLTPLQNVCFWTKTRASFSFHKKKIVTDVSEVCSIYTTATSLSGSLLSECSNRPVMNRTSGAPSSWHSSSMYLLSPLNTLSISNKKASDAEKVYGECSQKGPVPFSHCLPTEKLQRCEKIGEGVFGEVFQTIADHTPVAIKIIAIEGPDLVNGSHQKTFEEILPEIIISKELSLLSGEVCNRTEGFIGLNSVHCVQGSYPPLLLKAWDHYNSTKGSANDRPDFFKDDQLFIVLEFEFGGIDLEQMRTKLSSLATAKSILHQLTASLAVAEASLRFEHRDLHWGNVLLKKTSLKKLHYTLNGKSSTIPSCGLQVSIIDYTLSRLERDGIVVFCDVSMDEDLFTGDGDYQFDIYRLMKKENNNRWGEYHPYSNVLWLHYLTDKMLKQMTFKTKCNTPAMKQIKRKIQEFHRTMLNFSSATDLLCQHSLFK
The assay is described as follows: Selectivity interaction (Kinase panel (DSF assay)) EUB0001558a GSG2. On the technique in general: In DSF a fluorescence change marks the thermal transition of the protein.

The target in assay [13] is Tyrosine-protein kinase Fyn (Homo sapiens) (UniProt P06241). Nature of the assay: Selectivity interaction (Millipore kinase profiler) EUB0000124b FYN. As to conditions: at 10 µM.
Assay [14] deals with Mitogen-activated protein kinase kinase kinase 1 (Homo sapiens, UniProt Q13233). Nature of the assay: Selectivity interaction (KinomeScan (DiscoverX)) EUB0000229b MAP3K1. As to conditions: at 10 µM.

Each structure is given as a SMILES string. pIC50: −log10 of the molar value.

SRSF protein kinase 2 (Homo sapiens), sequence (P78362 whole entry, looked up): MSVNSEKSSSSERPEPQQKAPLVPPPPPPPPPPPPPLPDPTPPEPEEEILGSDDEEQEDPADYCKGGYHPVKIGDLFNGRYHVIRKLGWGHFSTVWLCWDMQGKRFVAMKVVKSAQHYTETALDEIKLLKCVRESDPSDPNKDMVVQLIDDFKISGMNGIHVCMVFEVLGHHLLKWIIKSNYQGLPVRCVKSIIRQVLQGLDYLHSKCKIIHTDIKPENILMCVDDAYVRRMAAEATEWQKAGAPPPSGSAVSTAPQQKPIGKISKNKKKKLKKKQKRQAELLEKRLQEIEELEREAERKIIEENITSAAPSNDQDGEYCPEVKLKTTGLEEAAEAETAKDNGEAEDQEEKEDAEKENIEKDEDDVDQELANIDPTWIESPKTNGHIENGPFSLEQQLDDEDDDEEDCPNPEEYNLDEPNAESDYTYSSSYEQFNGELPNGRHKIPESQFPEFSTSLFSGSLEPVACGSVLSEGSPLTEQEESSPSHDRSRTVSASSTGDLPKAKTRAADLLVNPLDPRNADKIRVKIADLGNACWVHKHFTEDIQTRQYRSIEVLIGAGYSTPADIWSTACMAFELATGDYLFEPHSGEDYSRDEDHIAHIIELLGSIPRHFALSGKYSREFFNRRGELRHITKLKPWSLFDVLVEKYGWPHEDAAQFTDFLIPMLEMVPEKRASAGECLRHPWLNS

As for `Cn1cc(-n2cnc3c(NCc4nc5cc(Cl)c(Cl)cc5[nH]4)nc(N4CCOCC4)nc32)cn1`, the % of inhibition in assay [1] was -34.6%.

On to `O=C(NOC[C@H](O)CO)c1ccc(F)c(F)c1Nc1ccc(I)cc1F`, for which the % of control in assay [2] was 97%; in assay [3], 84%.

As to `CNC(=O)Nc1ccc(-c2nc(N3CC4CCC(C3)O4)c3cnn(C4CCC5(CC4)OCCO5)c3n2)cc1`, in assay [4], the % of inhibition came out at 5%.

In assay [5], `Cc1cc([C@@H](C)Nc2ccccc2C(=O)O)c2nc(N3CCOCC3)cc(=O)n2c1` [AZD-6482] had a % of control of 44%.

With `Cc1cnc(Nc2ccc(F)cc2Cl)nc1-c1c[nH]c(C(=O)N[C@H](CO)c2cccc(Cl)c2)c1`, in [6], the % of inhibition was 0%.

For `CC[C@@H]1[C@H](F)C(=O)N[C@@H]1COc1nccc2cc(C(N)=O)c(OC)cc12` [ZIMLOVISERTIB], the % of inhibition in assay [7] (at 0.01 µM) is 6.9%; in assay [7] (at 0.04 µM), -23%; in [7] (at 0.2 µM) it was -5.5%; in [7] (at 1 µM), 11.7%; in assay [7] (at 5 µM), 19.9%.

`COc1cc(Nc2nc(C)cc(-c3cnn4nc(OC)ccc34)n2)cc(C(F)(F)F)c1` showed a % of control in [8] of 100%.

As a reminder, the pIC50 is the negative decadic logarithm of the IC50, by convention in mol/L. Lower therefore signals a large IC50. In assay [9], `CCC(=O)N1CC[C@H](Nc2ncnc3c2CN(c2cnc(OC)c(C(F)(F)F)c2)CC3)C1` [LENIOLISIB] gave a pIC50 of less than 5.00.

For the compound `CN(C)CCOc1ccc(-c2nc(-c3ccncc3)c(-c3ccc4c(c3)CC/C4=N\O)[nH]2)cc1`, in assay [10], the % of control amounted to 84%.

In the case of `O[C@H]1CC[C@H](Nc2ncc3nc(Nc4c(F)cc(F)cc4F)n([C@H]4CCOC4)c3n2)CC1`, the % of control in [11] worked out at 71%.

`CC(C)(O)[C@H](F)CN1Cc2cc(NC(=O)c3cnn4cccnc34)c(N3CCOCC3)cc2C1=O` had a dTM in [12] of 0.8 K.

`CC(=O)Nc1cccc(-n2c(=O)n(C3CC3)c(=O)c3c(Nc4ccc(I)cc4F)n(C)c(=O)c(C)c32)c1` came in with a % of control in [13] of 101%.

In assay [14], `COc1cc(N(C)c2ccnc3ccc(C(F)(F)F)cc23)cc(OC)c1OC` came in with a % binding of 74%.
